The assay deals with T1, HIV-1 reverse transcriptase (Human immunodeficiency virus type 1 group M subtype B, UniProt P04585).
T1 construct: purified recombinant HIV-1 reverse transcriptase (RT, EC, 2.7.7.49) obtained by expression in Escherichia Coli; made in house; host or cells: Escherichia coli
Description: Inhibition of HIV-1 Reverse Transcriptase Enzyme. It is filed as biochemical. The text has this: The activity of the compounds of the invention as reverse transcriptase inhibitors may be measured using the following assay.
Inhibition of HIV-1 Reverse Transcriptase Enzyme
Using purified recombinant HIV-1 reverse transcriptase (RT, EC, 2.7.7.49) obtained by expression in Escherichia Coli, a 96-well plate assay system is established for assaying a large number of samples using either the Poly(rA)-oligo(dT) Reverse Transcriptase [3H]-SPA enzyme assay system (Amersham NK9020) or the [3H]-flashplate enzyme assay system (NEN-SMP 103) and following the manufacturer's recommendations. The compounds are dissolved in 100% DMSO and diluted with the appropriate buffer to a 5% final DMSO concentration. The inhibitory activity is expressed in percent inhibition relative to DMSO control.

The structures appear in SMILES notation. Like-named read-outs stand apart in the source and are kept apart here.

For orientation: IC50 means the concentration needed to halve the response being measured. Regarding `CCc1nn(C)c(Oc2ccccn2)c1Oc1cc(C#N)cc(C#N)c1` [Example 1, 5-[3-Ethyl-1-methyl-5-(pyridin-2-yloxy)-1H-pyrazol4-yloxy]-isophthalonitrile], the IC50 (purified recombinant HIV-1 RT expressed in Escherichia Coli, [3H]-SPA or [3H]-flashplate enzyme assay, 5% final DMSO, read-out: IC50) was 5400 nM.

Turning to `CCc1nn(C)c(Oc2ncc(Oc3ccc(OC)cc3)cn2)c1Oc1cc(C#N)cc(C#N)c1` [Example 6], the 50% inhibitory concentration (IC50) stood at 391 nM.

(Values after patent publication US7230025B2, “Pyrazole derivatives” (Pfizer, Inc., priority 2002, dated 2007).)
